In brackets after ≈: the same amount, converted by molar mass. Several values for one entry are separate records, joined by “and”; a condition that tells them apart may be missing. Equal entries are not always repeated.
Experiments:
Rattus norvegicus [1] = test system: Rattus norvegicus
Rattus norvegicus [2] = test system: Rattus norvegicus; remark: listed apart in the source
Oryctolagus sp. = conditions: acute, dermal
Rattus norvegicus [3] = test system: Rattus norvegicus; remark: listed apart in the source
Rattus norvegicus [4] = conditions: oral
Rattus norvegicus [5] = conditions: Hershberger; duration: 10 days; oral; gavage; Sprague-Dawley; inactive + Negative + Negative + neither + negative
Homo sapiens = conditions: clinical
Rattus norvegicus [6] = conditions: oral; remark: listed apart in the source
Canidae [7] = conditions: oral, Beagle
Rattus norvegicus [8] = conditions: developmental; oral; diet; Fetus: Fetotoxicity
Canidae [9] = conditions: oral, diet, Beagle
Mus musculus [10] = conditions: acute; oral
Canidae [11] = conditions: subchronic; oral; M/F; Dog Other; red blood cell and liver effects
Rattus norvegicus [12] = conditions: for LOAEL: short-term
Mus musculus [13] = conditions: short-term; duration: 14 days; oral; drinking water; M/F; B6C3F1; hepatic
[14] = subchronic, duration: 90 days, inhalation, M/F, nasal turbinates
[15] = subchronic, duration: 90 days, oral, diet, Sprague-Dawley
[16] = chronic, duration: 2 years, oral, diet, M/F, reduced body weight (males), inflammatory foci in kidneys of females
[17] = chronic, duration: 12 months, capsule, M/F, Decreased bodyweight gains & peripheral redness
[18] = duration: 12 months, capsule, M/F, Decreased bodyweight gains & peripheral redness
[19] = reproduction developmental, Long-Evans, Micromelia, ectromelia, curved femur and microfetalis
[20] = chronic, oral, diet, M/F, kidney toxicity
[21] = developmental, oral, F, reduced delayed hypersensitivity response
[22] = chronic, oral, M/F, reduced body weight

ClCC1CO1 (configuration not stated) [Epichlorohydrin]
LOAEL (Rattus norvegicus [1]; [14]): 95 mg/m3
NOAEL (Rattus norvegicus [1]; [14]): 19 mg/m3
LOAEL (Rattus norvegicus [2]; reproduction developmental, duration: 23 days, oral, gavage, M, Long-Evans, reproductive): 6.25 mg/kg-day

FC(F)(F)c1ccc(Cl)c(Cl)c1 [1,2-Dichloro-4-(trifluoromethyl)benzene]
NOAEL (Rattus norvegicus [2]; short-term, duration: 14 days, oral, gavage, M/F, Albino CD): 60 mg/kg-day
LD50 (Oryctolagus sp.): > 5000 mg/kg
LD50 (Oryctolagus sp.; occlusive): 5000 mg/kg
LD50 (Rattus norvegicus [3]; acute, oral, CF Nelson): 1150 mg/kg
NOAEL (Rattus norvegicus [3]; short-term, duration: 28 days, oral, diet, Sprague-Dawley): 20 ppm

Clc1cccc(Cl)c1Cl [1,2,3-Trichlorobenzene]
NOAEL (Rattus norvegicus [2]; subchronic, duration: 13 weeks, oral, diet, M, Sprague-Dawley, Whole Body Effects, Hepatic): 7.7 mg/kg-day
NOAEL (Rattus norvegicus [3]; developmental, duration: 10 days, oral, gavage, Sprague-Dawley): 600 mg/kg-day
NOAEL (Rattus norvegicus [3]; reproduction developmental, duration: 10 days, oral, gavage, F, Sprague-Dawley): 150 mg/kg-day
LOAEL (Rattus norvegicus [3]; [15]): 96 mg/kg-day
NOAEL (Rattus norvegicus [3]; [15]): 9.6 mg/kg-day

CC1(C)C(C=C(Cl)Cl)C1C(=O)OC(C#N)c1ccc(F)c(Oc2ccccc2)c1 (configuration not stated) [Cyfluthrin]
LEL (Rattus norvegicus [1]; [16]): 7.5 mg/kg-day
NOEL (Rattus norvegicus [1]; [16]): 2.5 mg/kg-day
NOEL (Rattus norvegicus [4]; chronic, duration: 2 years, diet, M/F, Wistar, Depressed bodyweight gain): 2 mg/kg-day
NOEL (Rattus norvegicus [4]; dietary / carcinogenicity, duration: 2 years, feed, M/F, Wistar, Depressed bodyweight gain): 2 mg/kg-day
NOEL (Rattus norvegicus [5]): 20 mg/kg-day

F [Hydrogen fluoride]
LOAEL (Homo sapiens; duration: 1 hours, inhalation, M, respiratory): 0.409 mg/m3

c1ccc2c(c1)oc1ccccc12 [Dibenzofuran]
LOAEL (Rattus norvegicus [2]; chronic, duration: 200 days, oral, diet, F, albino, Whole Body Effects): 12.3 mg/kg-day
NOEL (Rattus norvegicus [6]; short-term, duration: 28 days, gavage, F, Sprague-Dawley, Clinical Observation: Locomotor activity decrease, Salivation Soiled perineal region + Body Weight Changes: decrease + Urinalysis: Volume …): 40 mg/kg-day
NOAEL (Rattus norvegicus [6]; short-term, duration: 28 days, gavage, M/F, Sprague-Dawley, Clinical Observation: Locomotor activity decrease, Salivation Soiled perineal region + Body Weight Changes: decrease + Urinalysis: Volume …): 40 mg/kg-day

ClCCCCl [1,3-Dichloropropane]
NOAEL (Rattus norvegicus [2]; subchronic, duration: 90 days, oral, gavage, M/F, Sprague-Dawley, Hepatic, Urinary): 50 mg/kg-day

CC[C@H]1OC(=O)C[C@@H](O)[C@H](C)[C@@H](O[C@@H]2O[C@H](C)[C@@H](O)[C@H](N(C)C)[C@H]2O)[C@@H](CCN2C[C@H](C)C[C@H](C)C2)C[C@@H](C)C(=O)/C=C/C(C)=C/[C@@H]1CO[C@@H]1O[C@H](C)[C@@H](O)[C@@H](OC)[C@H]1OC [Tilmicosin]
LOEL (Canidae [7]; [17]): 12 mg/kg-day
NOEL (Canidae [7]; [17]): 4 mg/kg-day
LOEL (Canidae [7]; [18]): 12 mg/kg-day
NOEL (Canidae [7]; [18]): 4 mg/kg-day

CCCSc1ccc2nc(NC(=O)OC)[nH]c2c1 [Albendazole]
LOEL (Rattus norvegicus [4]; [19]): 10 mg/kg-day
NOEL (Rattus norvegicus [4]; [19]): 5 mg/kg-day

OCCO [Ethylene glycol]
LOAEL (Rattus norvegicus [1]; [20]): 1000 mg/kg-day
NOEL (Rattus norvegicus [1]; [20]): 200 mg/kg-day
NOAEL (Rattus norvegicus [6]; chronic, duration: 16 weeks, diet, M, Wistar, Deaths + Body Weight Changes: Mean body weight decrease + Food Consumption: decrease + Water Consumption: increase + Urinalysis: SG decrease…): 150 mg/kg-day
NOAEL (Rattus norvegicus [6]; chronic, duration: 16 weeks, diet, M, Wistar, Water Consumption: increase + Urinalysis: SG decrease, VOL increase + Absolute Organ Weight: Kidney increase + Relative Organ Weight: Kidney…): 150 mg/kg-day
NOEL (Rattus norvegicus [8]): 200 mg/kg-day
NOAEL (Homo sapiens; duration: 30 days, inhalation, M, respiratory): 23 mg/m3

CCC(CC)C(C)COC(=O)c1ccccc1C(=O)OCC(C)C(CC)CC (configuration not stated) [Di-C7-9-branched and linear alkyl phthalates]
NOAEL (Canidae [9]; chronic, duration: 14 weeks): 100 mg/kg-day
LD50 (Mus musculus [10]): > 26000 mg/kg
LD50 (Rattus norvegicus [3]; acute, oral): > 22000 mg/kg
NOAEL (% diet) (Rattus norvegicus [3]; reproduction developmental, oral, diet, Sprague-Dawley, generation: F0): 1
NOAEL (% diet) (Rattus norvegicus [3]; reproduction developmental, oral, diet, Sprague-Dawley, generation: F1): 1
NOAEL (Rattus norvegicus [3]; short-term, duration: 4 weeks, oral, diet): 100 mg/kg-day

CN1C(=O)[C@]23C[C@H]4C(C)(C)[C@]5(CNc6c5ccc5c6OC=CC(C)(C)O5)C[C@@]41CN2CC[C@@]3(C)O
LOAEL (Canidae [7]; subchronic, duration: 90 days, capsule / gavage, M/F, Protruding nictitating membranes, dilated pupils, eye redness and decreased indirect pupillary light response): 0.1 mg/kg-day

CC(=O)c1ccccc1 [Acetophenone]
NOAEL (Rattus norvegicus [1]; subchronic, oral, M/F, general toxicity): 423 mg/kg-day
NOAEL (Rattus norvegicus [2]; reproduction developmental, oral, gavage, M/F, Sprague-Dawley): 225 mg/kg-day

C=Cc1ccccc1 [Styrene]
LOAEL (Canidae [11]): 400 mg/kg-day
NOAEL (Canidae [11]): 200 mg/kg-day
NOAEL (Homo sapiens; duration: 6 hours, inhalation, M, neurological): 209 mg/m3
LOAEL (Rattus norvegicus [12]; duration: 14 days, oral, gavage, M, Wistar, neurological): 100 mg/kg-day
NOEL (Rattus norvegicus [4]; chronic, duration: 2 years, drinking water, M/F, Sprague-Dawley, Decreased bodyweight, females): 7.7 mg/kg-day and 14 mg/kg-day

N#CCCCCC#N [Hexanedinitrile]
NOAEL (Rattus norvegicus [2]; subchronic, duration: 13 weeks, inhalation, whole body, M/F, Crl:CD(SD), Hematologic): 31 mg/m3
LD50 (Oryctolagus sp.; occlusive, New Zealand): 2130 mg/kg
LC50 (Rattus norvegicus [3]; acute, inhalation, Sprague-Dawley): 1.71 µg/mL (≈ 15.8 µM)
LD50 (Rattus norvegicus [3]; acute, oral, gavage, Crl:CD(SD)): 138 mg/kg and 301 mg/kg
NOAEL (Rattus norvegicus [3]; developmental, duration: 14 days, oral, gavage, Sprague-Dawley): > 80 mg/kg-day

O=[N+]([O-])c1cc(C(F)(F)F)ccc1Cl [4-Chloro-3-nitrobenzotrifluoride]
LOAEL (Rattus norvegicus [2]; short-term, duration: 28 days, oral, gavage, M, Sprague-Dawley): 1 mg/kg-day

[V] [Vanadium]
NOAEL (Homo sapiens; duration: 12 weeks, oral, capsule, M/F, hematological): 0.12 mg/kg-day
LOAEL (Rattus norvegicus [12]; duration: 16 days, inhalation, F, Fischer 344, respiratory): 0.56 mg/m3

COC[C@H]1O[C@@H](OC2OC[C@@H]3O[C@]4(O[C@H]3[C@H]2OC(=O)C(C)C)O[C@H](C)[C@@](O)(C(C)=O)[C@@H]2OCO[C@H]24)[C@@H](OC)[C@@H](O)[C@@H]1O[C@@H]1O[C@H](C)[C@H](OC)[C@H](O[C@H]2C[C@@]3(C)OC4(C[C@@H](O)[C@H](O[C@H]5C[C@@H](O)[C@H](OC(=O)c6c(C)c(Cl)c(O)c(Cl)c6OC)[C@@H](C)O5)[C@@H](C)O4)O[C@@H]3[C@@H](C)O2)[C@H]1O (some centres not stated) [Avilamycin]
NOEL (Rattus norvegicus [4]; reproduction developmental, duration: 2 years, diet, M/F, Sprague-Dawley, no effects): 150 mg/kg-day

CC[C@@]1([C@@H]2O[C@@H]([C@H]3O[C@@](O)(CO)[C@H](C)C[C@@H]3C)C[C@@H]2C)CC[C@H]([C@]2(C)CC[C@]3(C[C@H](O)[C@@H](C)[C@@H]([C@@H](C)[C@@H](OC)[C@H](C)C(=O)O)O3)O2)O1 [Monensin]
NOAEL (Rattus norvegicus [4]; chronic, duration: 2 years, diet, M/F, Wistar, Decreased bodyweight gain): 1.14 mg/kg-day

[I-].[Na+] [Sodium iodide]
NOAEL (Homo sapiens; duration: 14 days, oral, M/F, endocrine): 0.01 mg/kg-day

Oc1ccc(Cl)cc1Cl [2,4-Dichlorophenol]
LOAEL (Rattus norvegicus [1]; [21]): 3 mg/kg-day
NOEL (Rattus norvegicus [1]; [21]): 0.3 mg/kg-day
LOAEL (Rattus norvegicus [2]; subchronic, duration: 13 weeks, oral, drinking water, M/F, Sprague-Dawley, Whole Body Effects): 3 mg/kg-day
NOAEL (Rattus norvegicus [6]; subchronic, duration: 90 days, diet, M/F, Fischer 344, Clinical Observation: Hunched posture Rough hair coats + Body Weight Changes: decrease + Food Consumption: decrease, (palatability decrease…): 480 mg/kg-day

CC1(C)C(C=C(Cl)c2ccc(Cl)cc2)C1C(=O)OC(C#N)c1ccc(F)c(Oc2ccccc2)c1 (configuration not stated) [Flumethrin]
NOAEL (Rattus norvegicus [4]; developmental, Reduced pup survival and bodyweight gain. Maternal toxicity: salivation): 0.37 mg/kg-day

[Sb] [Antimony]
LOAEL (Rattus norvegicus [1]; chronic, oral, M/F, longevity, blood glucose, and cholesterol): 0.35 mg/kg-day
LOAEL (Rattus norvegicus [2]; chronic, duration: 2 years, oral, drinking water, M/F, Long-Evans, Whole Body Effects): 0.35 mg/kg-day
NOAEL (Mus musculus [13]): 99 mg/kg-day
NOAEL (Rattus norvegicus [12]; subchronic, duration: 13 weeks, oral, drinking water, M/F, Sprague-Dawley, metabolic): 0.06 mg/kg-day

c1ccc([C@H]2CN3CCSC3=N2)cc1 [Levamisole]
LOEL (Canidae [7]; immunotoxicology, duration: 14 months, capsule, Re-emergence of haemolytic anaemia): 1.25 mg/kg-day

O=S=O [Sulfur dioxide]
LOAEL (Homo sapiens; duration: 1 days, inhalation, M/F, respiratory): 0.262 mg/m3

[Tl] [Thallium]
LOAEL (Rattus norvegicus [2]; subchronic, duration: 90 days, oral, gavage, M/F, Sprague-Dawley): 0.04 mg/kg-day

CCOP(=S)(OCC)ON=C(C#N)c1ccccc1 [Phoxim]
NOEL (Rattus norvegicus [6]; short-term, duration: 28 days, gavage, M/F, Slc: Wistar, Clinical Observation: Salivation + Body Weight Changes: decrease + Hematology: Hgb decrease, , Hct decrease, Plt increase, WBC increase + …): < 7.5 mg/kg-day
NOEL (Rattus norvegicus [6]; short-term, duration: 28 days, gavage, M/F, Wistar, Clinical Observation: Salivation + Body Weight Changes: Weight gain decrease + Blood Chemistry: TP increase, ALB increase, A/G increasegamma…): < 7.5 mg/kg-day
NOEL (Canidae [7]; chronic, duration: 2 years, diet, M/F, Liver effects and inhibition of brain acetylcholinesterase activity): 0.38 mg/kg-day
NOEL (Canidae [7]; duration: 2 years, feed, M/F, Liver effects and inhibition of brain acetylcholinesterase activity): 0.38 mg/kg-day

FC(F)(Cl)Cl [Dichlorodifluoromethane]
LOAEL (Rattus norvegicus [1]; [22]): 150 mg/kg-day
NOAEL (Rattus norvegicus [1]; [22]): 15 mg/kg-day
NOAEL (Rattus norvegicus [2]; chronic, duration: 2 years, oral, gavage, M/F, Crl:CD(SD), Whole Body Effects): 15 mg/kg-day

CCCC[C@@H](C)[C@@H](OC(=O)C[C@@H](CC(=O)O)C(=O)O)[C@H](C[C@@H](C)C[C@H](O)CCCC[C@@H](O)C[C@H](O)[C@H](C)N)OC(=O)C[C@@H](CC(=O)O)C(=O)O [Fumonisin B1]
NOEL (Rattus norvegicus [6]; short-term, duration: 28 days, diet, M/F, Fischer 344, Body Weight Changes: decrease + Blood Chemistry: Crn increase, TP increase, Cho increase, TG increase, ALT increase, ALP increase, AST …): < 99 ppm
NOEL (Rattus norvegicus [4]; subchronic, duration: 90 days, diet, M/F, Fischer 344, Nephrotoxicity): 0.2 mg/kg-day

Cc1c(Cc2cc(C(C)(C)C)c(O)c(C(C)(C)C)c2)c(C)c(Cc2cc(C(C)(C)C)c(O)c(C(C)(C)C)c2)c(C)c1Cc1cc(C(C)(C)C)c(O)c(C(C)(C)C)c1 [Ionox 330]
NOAEL (Canidae [9]; subchronic, duration: 90 days): 185 mg/kg-day
LD50 (Rattus norvegicus [3]; acute, dermal, semiocclusive): > 2000 mg/kg
LD50 (Rattus norvegicus [3]; acute, injection, intraperitoneal, Sprague-Dawley): > 1000 mg/kg
LD50 (Rattus norvegicus [3]; acute, oral, Carworth 'E' and 'N' strains): > 5000 mg/kg
NOAEL (Rattus norvegicus [3]; subchronic, duration: 90 days, oral, diet): > 960 mg/kg-day
NOAEL (Rattus norvegicus [3]; subchronic, duration: 90 days, oral, diet, albino): 480 mg/kg-day
